# Experimental data as given in patent publication US6376470B1, “Polymer conjugates of ara-C and ara-C derivatives” (Enzon, Inc., priority 1999, dated 2002).
# Assays:
# [1] = tested on: subcutaneous human non-small cell lung carcinoma (LX-1); assay: In vivo efficacy against subcutaneous LX-1 tumor xenograft in nude mice; details: for Effectiveness in LX-1 solid tumor model (in words): Ara-C 100 mg/kg/dose, PEG-ara-C 20 mg/kg/dose (one fifth of native dose), i.v. x4; for Mean Vol. ± SEM at Day 24 / % Change ± SEM at Day 24 (mean percent change in individual tumor volumes from initial): LX-1 s.c. in nude mice, PEG-Ara-C 80 mg/kg; for Mean Vol. ± SEM at Day 24: i.v. x4 doses (day 1, 4, 7, 10), baseline 300 mm^3; for Mean Vol. ± SEM at Day 24 / % Change ± SEM at Day 24 (mean percent change in individual tumor volumes from initial) / T/C (%) at Day 7 / T/C (%) at Day 24 / Regression at Day 24 (#/Grp) / Complete Regression (#/Grp): total dose Ara-C 400 mg/kg; for % Change ± SEM at Day 24 (mean percent change in individual tumor volumes from initial): i.v. x4 doses; for T/C (%) at Day 7: median tumor volume treated vs control when control median approx. 1000 mm^3 (day 7); for T/C (%) at Day 7 / T/C (%) at Day 24 / Regression at Day 24 (#/Grp) / Complete Regression (#/Grp): PEG-Ara-C 80 mg/kg i.v.; for T/C (%) at Day 24: median tumor volume treated vs control when control median approx. 2400 mm^3 (day 24); for Regression at Day 24 (#/Grp): smaller tumor volume on day 24 compared to day 1
# Experimental: Athymic nude mice were implanted subcutaneous with a 4-5 mm^3 tissue fragment of LX-1 collected from donor mice. The tumor trocar site was observed twice weekly and measured once palpable. […] The mice were sorted to evenly distribute tumor size, grouped into 6 to 7 mice per group, and ear punched for permanent identification. Drugs were administered intravenously every 3 days×4 doses (day 1, 4, 7 and 10) via the tail vein at an approximate rate of 0.5 mL per minute. […] Therefore, this study compares the PEG-conjugate at one fifth the native dose, and presumably much less than its MTD. Mouse weight and tumor size were measured at the beginning of study and twice weekly through week 4. Drug effectiveness were determined by comparing tumor growth in treated versus untreated (no vehicle) control mice. Five types of endpoints were used as the basis for comparison: (a) mean tumor volumes at day 24; (b) mean percent change in individual tumor volumes from initial; (c) percent difference in tumor volume (%T/C), measured when the control group's median tumor volume reached approximately 800-1100 mm^3 (exponential growth phase); (d) percent difference in tumor volume (%T/C) at day 24 and (e) the number of tumor regression (smaller tumor volume on day 24 compared to day 1) per group.
# P388/0 = assay: In vitro cytotoxicity assay (Alamar Blue), P388/0 cells; assay type: cell-based; details: 3 days incubation
# Experimental: Cell Lines and Cytotoxicity Assays. Studies using P388/0 cell lines for IC50 (drug concentration inhibiting growth of cells by 50%) were maintained and conducted using standard procedures. Briefly, for IC50 determination, cells were seeded into the microwell plates at a density of 2×10^3 cells per 50 μL per well. Plates were incubated at 37° C. in a humidified incubator with 5% CO2 for 3 days. Cell growth was measured by the addition of 10 μL/well of Alamar Blue (Alamar Biosciences, Inc., Sacramento, Calif.) and the plates were incubated a further 4 hours at 37° C. The IC50 values for each compound were determined from absorbance versus dilution factor plots. All cell cultures for animal implantation were maintained at 37° C. in a humidified atmosphere of 5% CO2/[…] and subcultured once a week. All cell lines were periodically tested for Mycoplasma and were Mycoplasma free.
Compound,Effectiveness in LX-1 solid tumor model (in words) [1],Mean Vol. ± SEM at Day 24 [1],% Change ± SEM at Day 24 (mean percent change in individual tumor volumes from initial) [1],T/C (%) at Day 7 [1],T/C (%) at Day 24 [1],Regression at Day 24 (#/Grp) [1],Complete Regression (#/Grp) [1],"IC50 (P388/0; Mus musculus, 72 h)",IC50 (P388/0)
"Nc1ccn([C@@H]2O[C@H](CO)[C@@H](O)[C@@H]2O)c(=O)n1 [Ara-C, 1-(β-D-arabinofuranosyl)cytosine]",ineffective,3192.5 mm^3,1514.8%,112.2%,144.6%,0/7,0/7,10 nM,–
"Nc1ccn([C@@H]2O[C@H](CO)[C@@H](O)C2(F)F)c(=O)n1 [Gemcitabine, gemcitabine]",–,–,–,–,–,–,–,2 nM,–
PEG-amide-Ara-C [PEG-Ara-C],significant tumor growth inhibition,2205.0 mm^3,557.4%,76.4%,73.0%,1/6,1/6,–,12 nM
PEG-amide-Gemcitabine [PEG-Gemcitabine],–,–,–,–,–,–,–,–,46 nM
